# Values quoted from earlier work as cited in patent US20080131532A1, “Fast asleep” (priority 2006, published 2008).
# Assays:
# rat brain = conditions: following administration
# [1] = system: patients with multi-infarct dementia or senile dementia and senile and pre-senile simple memory disorders
# [2] = system: subjects with Alzheimer's disease; conditions: eight weeks, 50 subjects
# [3] = in vivo
# [4] = system: travelers crossing five or more time zones
# healthy elderly subjects = conditions: 1 mg nightly for 4 weeks
# [5] = system: primary or secondary sleep disorders; conditions: meta-analysis
# [6] = system: children with idiopathic chronic sleep-onset insomnia; conditions: 5 mg at 7 pm, 4-week treatment
# [7] = system: long-term users of benzodiazepine; conditions: 2 milligrams daily controlled release
# [8] = system: schizophrenic outpatients with initial insomnia; conditions: 3-12 mg/night, 15 days
# women = conditions: 100 mg pill at 08.00 h
# patients with tinnitus = conditions: 3 mg per day for 4 weeks; weeks 0 to 4 and weeks 0 to 8
# [9] = system: children with neurologic disorders; conditions: 5 milligrams at bedtime, six children
# women with asthma = conditions: 3 mg for 4 weeks, between groups
# healthy male volunteers = conditions: 10-mg dose for 28 days, 1 hour before sleep time
# jet lag = conditions: two doses, different administration times
# [10] = sleep-disturbed rats, 09:00 to 15:00
smiles,measurement,setting,value
"CCOC(=O)c1ncn2c1CN(C)C(=O)c1cc(F)ccc1-2 [Flumazenil, flumazenil]",effect on changes in delta activity induced by kava-kava extract and flunitrazepam,sleep-disturbed rats; sleep-disturbed rats,no significant effect
C/C=C1\[C@H]2C=C(C)C[C@]1(N)c1ccc(=O)[nH]c1C2 [Huperzine A],acetylcholine levels in the rat brain,rat brain,increase
same,dopamine levels,rat brain,increases
same,norepinephrine levels,rat brain,increases
same,Dizziness,[1]; in vivo,experienced by a few
same,Wechsler Memory Scale,[1]; injectable form versus saline control,significant positive effects
same,"patients with significant improvement in memory, cognitive and behavioral functions",[2],58%
same,time to reach peak blood level,[3],approximately 80 minutes
same,duration of AChE inhibitory action,"compared with tacrine, donepezil, and rivastigmine",longer duration
same,penetration through the blood-brain barrier,in vivo,better penetration
same,toxicity in animal and clinical safety tests,in vivo,no unexpected toxicity
same,oral bioavailability,"in vivo, po",higher
same,memory deficits,"phase IV clinical trials in China, elderly with benign senescent forgetfulness, Alzheimer disease, vascular dementia",significantly improved
CC1=C[C@H]2Cc3[nH]c(=O)ccc3[C@]3(C1)NCCC[C@H]23 [Huperzine B],acetylcholinesterase inhibition (in words),acetylcholinesterase,much less potent
"COc1ccc2[nH]cc(CCNC(C)=O)c2c1 [Melatonin, N-[2-(5-Methoxy-1H-indol-3-yl)ethyl]acetamide]",effect on jet lag,[4],reduce or prevent jet lag
same,California Verbal Learning Test-interference subtest scores,healthy elderly subjects,improved
same,reported morning restedness,healthy elderly subjects,improved
same,sleep latency after nocturnal awakening,healthy elderly subjects,improved
same,efficacy in primary or secondary sleep disorders,[5],not effective
same,Lights-off time,[6],did not change
same,advance of sleep offset,[6],9 min
same,advance of sleep onset,[6],57 min
same,decrease of sleep latency,[6],17 min
same,total scores of the RAND-GHRI and FS-II compared to placebo,[6],improved significantly more
same,total sleep time,[6],did not change
same,advance of melatonin onset,[6]; dim light melatonin onset in saliva,82 min
same,standardized response mean for the RAND-GHRI,[6]; placebo 0.07,0.69
same,standardized response mean for the FS-II,[6]; placebo 0.64,1.61
same,Sleep quality scores versus placebo,[7],significantly higher
same,subjects who completely discontinued benzodiazepine use,"[7]; period one, placebo four of 16",14 of 18
same,daytime functioning,[8],improved
same,duration of sleep,[8],increased
same,freshness on awakening,[8],heightened
same,mood,[8],improved
same,number of nighttime awakenings,[8],reduced
same,sleep-onset latency (subjective),[8],significantly reduced
same,daytime cortisol levels in postmenopausal women (PMW),women,marked increase
same,serum cortisol levels in young women (EFW),women,did not modify
same,mean PSQI,patients with tinnitus,significantly decreased
same,mean THI score,patients with tinnitus,decreased significantly
same,Quality and quantity of sleep,[9],quickly increased in five of the six children
same,"asthma symptoms, use of relief medication and daily peak expiratory flow rate",women with asthma,No significant difference
same,"sleep latency, criterion 10 minutes of uninterrupted sleep",healthy male volunteers,significant reduction
same,effect on jet lag versus placebo,jet lag,no beneficial physiological effect
CN1C(=O)CN=C(c2ccccc2F)c2cc([N+](=O)[O-])ccc21 [flunitrazepam],antagonism of the effects by flumazenil,sleep-disturbed rats; benzodiazepine receptor antagonist flumazenil,antagonized
same,delta activity during non-REM sleep,sleep-disturbed rats; sleep-disturbed rats,significant decrease
same,total non-REM sleep time,sleep-disturbed rats; [10],increase
same,total waking time,sleep-disturbed rats; [10],decrease
same,sleep latency,"sleep-disturbed rats; sleep-disturbed rats, kava-kava extract 300 mg/kg",significant shortening
